Source: patent US10851412B2, “Cell potency assay for therapeutic potential” (FATE THERAPEUTICS, INC., priority 2013, dated 2020)

Test system: Human umbilical cord blood
Assay: Cell potency assay: real-time PCR signature gene expression score of treated cord blood
Type: cell-based
Description: Human umbilical cord blood was treated ex vivo with 16,16, dimethyl prostaglandin E2 (dmPGE2) prior to transplantation. Real-time PCR transcript quantitation of gene expression from the treated cord blood cells was used to determine the therapeutic potential of the cells. RNA was extracted from an aliquot (100 uL) of the treated cord blood cells using the PicoPure RNA Isolation kit (Life Technologies) using the manufacturer's recommended protocol. Total RNA was quantified using the Nanodrop 2000 Spectrophotometer (Thermo Scientific). Complimentary DNA (cDNA) was reverse transcribed from 50 ng of total RNA using the High-Capacity cDNA Reverse Transcription Kit (Life Technologies).
Quantitative PCR was performed in triplicate for each gene in the amplified cDNA using StepOne Plus (Applied Biosystems) and Taqman gene expression assays (Life Technologies) and 40 cycles of real-time PCR. Results of the real-time PCR were analyzed using the StepOne Software v2.1 analysis package (Applied Biosystems). Expression values of the transcripts were normalized to the Taqman gene expression average for the housekeeping genes, GAPDH and HPRT1, to determine the relative expression levels (ΔCt values). […]

CCCCC(C)(C)[C@H](O)/C=C/[C@H]1[C@H](O)CC(=O)[C@@H]1C/C=C\CCCC(=O)O [dmPGE2, 16,16, dimethyl prostaglandin E2]
gene expression in the group of signature genes (real-time PCR) (human umbilical cord blood after a two hour treatment): Increased gene expression | gene expression score (standardized Euclidean distance model vs training set) (human umbilical cord blood treated ex vivo, about two hours at 37° C. with 10 μM dmPGE2, test samples n=10, mean +/- SD, positive scores cluster with samples having therapeutic potential): 16.8+/−2.2
